# Structures can show the parent of a compound that is named as a salt. Where two headings read alike, the source gives them in different places.
# Columns and labels:
# [1] = tested on: Escherichia coli ATCC25922; test: MIC by broth microdilution (CLSI) against Escherichia coli ATCC 25922; assay type: cell-based; settings: Escherichia coli ATCC25922, in vitro
# Procedure: (§1) The in vitro activity against aerobic bacteria was determined by Broth Microdilution Test according to the Clinical and Laboratory Standards Institute (CLSI, former NCCLS) Document M7-A9 Vol 32, No 2 “Methods for Dilution Antimicrobial Susceptibility Tests for Bacteria that Grow Aerobically; Approved Standard—Ninth Edition (2012)”; and the test against anaerobic bacteria was performed by Agar Dilution Test according to the Clinical and Laboratory Standards Institute (CLSI, former NCCLS), Document, M11-A8, Vol. 32, No. 5: “Methods for Antimicrobial Susceptibility Testing of Anaerobic Bacteria; Approved Standard—Eighth Edition (2012)”. Performance standards and interpretive criteria followed the CLSI Document, M100-S23: “Performance Standards for Antimicrobial Susceptibility Testing; Twenty-Third Informational Supplement” (2013). The in vivo activity was tested by the septicaemia mouse model against Staphylococcus aureus and Escherichia coli.
# (§2) The antibacterial activity expressed as minimal inhibitory concentration (MIC) was determined according to the approved standard reference recommendations of CLSI (former NCCLS) as described in the description of the application.
# [2] = tested on: Staphylococcus aureus ATCC 49951; test: MIC by broth microdilution (CLSI) against Staphylococcus aureus ATCC 49951; assay type: cell-based; settings: Staphylococcus aureus ATCC 49951, in vitro
# Procedure: as §1, §2
SMILES,MIC [1] [µg/mL],MIC [2],MIC ([1]; read-out: MIC) [µg/mL],"MIC ([2]; ATCC49951, read-out: MIC) [µg/mL]"
"C[C@@H]1CC[C@@]23CCC(=O)[C@H]2[C@]1(C)[C@H](OC(=O)CSc1nnc(N)[nH]1)C[C@](C)(CNCCCCCCN)[C@@H](O)[C@@H]3C.Cl.Cl.Cl [Example 66, 12-epi-12-desvinyl-14-O-{[(5-Amino-4H-1,2,4-triazol-3-yl)-sulfanyl]-acetyl}-12-[(6-amino-hexylamino)-methyl] mutilin trihydrochloride]",4,0.5 µg/mL,–,–
"CC1C(O)C(C)(CNCCCCCCNC(=N)N)CC(OC(=O)CSc2ccc(CC(=O)NCCCN)cc2)C2(C)C(C)CCC13CCC(=O)C32.Cl.Cl.Cl (stereo not drawn) [Example 11, 12-epi-12-desvinyl-14-O-{{4-[(3-Amino-propylcarbamoyl)-methyl]-phenylsulfanyl}-acetyl}-12-[(6-guanidino-hexylamino)-methyl] mutilin trihydrochloride]",0.25,≦0.03 μg/mL,–,–
"CC1C(O)C(C)(CNCCCCCCN)CC(OC(=O)CSc2ccncc2)C2(C)C(C)CCC13CCC(=O)C32.Cl.Cl.Cl (stereo not drawn) [Example 68, 12-epi-12-desvinyl-14-O-[(Pyridin-4-ylsulfanyl)-acetyl]-12-[(6-amino-hexylamino)-methyl] mutilin trihydrochloride]",4,0.25 µg/mL,–,–
"CC1C(O)C(C)(CNCc2ccc(CN)cc2)CC(OC(=O)CSc2ccc(CC(=O)NCCCN)cc2)C2(C)C(C)CCC13CCC(=O)C32.Cl.Cl.Cl (stereo not drawn) [Example 9, 12-epi-12-desvinyl-14-O-{{4-[(3-Amino-propylcarbamoyl)-methyl]-phenylsulfanyl}-acetyl}-12-[(4-aminomethyl-benzylamino)-methyl] mutilin trihydrochloride]",0.5,≦0.03 μg/mL,–,–
"CC1C(O)C(C)(CNCc2cc(F)c(CN)cc2F)CC(OC(=O)CSc2ccc(CN)cn2)C2(C)C(C)CCC13CCC(=O)C32.Cl.Cl.Cl.Cl (stereo not drawn) [Example 103, 12-epi-12-desvinyl-14-O-{[5-Aminomethyl-pyridin-2-yl-sulfanyl]-acetyl}-12-[(4-aminomethyl-2,5-difluoro-benzylamino)-methyl] mutilin tetrahydrochloride]",4,0.5 µg/mL,–,–
"C=C[C@]1(C)C[C@@H](OC(=O)CSCCN(CC)CC)[C@]2(C)[C@H](C)CC[C@]3(CCC(=O)[C@H]32)[C@@H](C)[C@@H]1O [Tiamulin, tiamulin, reference compound]",–,–,> 32,0.5
"CC1C(O)C(C)(CNCCCN)CC(OC(=O)CSC2CCC(N)CC2O)C2(C)C(C)CCC13CCC(=O)C32.Cl.Cl.Cl [Example C3, 14-O-{[(1R,2R,4R)-4-Amino-2-hydroxy-cyclohexylsulfanyl]-acetyl}-12-desvinyl-12-[(3-amino-propylamino)-methyl] mutilin trihydrochlorid, reference compound]",>32,16 µg/mL,–,–
"CC1C(O)C(C)(C=Cc2ccc(CNCCN)c(F)c2)CC(OC(=O)CSC2CCCNCC2)C2(C)C(C)CCC13CCC(=O)C32.Cl.Cl.Cl (stereo not drawn) [Example 157, 12-epi-12-desvinyl-14-O-[(Azepan-4-ylsulfanyl)-acetyl]-12-((E)-2-{4-[(2-amino-ethylamino)-methyl]-3-fluoro-phenyl}-ethenyl) mutilin trihydrochlorid]",4,0.25 µg/mL,–,–
"C[C@@H]1CC[C@@]23CCC(=O)[C@H]2[C@]1(C)[C@H](OC(=O)CSc1ccc(CN)cn1)C[C@](C)(CNCc1ccc(CN)c(F)c1)[C@@H](O)[C@@H]3C [Example 99, 12-epi-12-Desvinyl-14-O-{[5-aminomethyl-pyridin-2-yl-sulfanyl)]-acetyl}-12-[(4-aminomethyl-3-fluoro-benzylamino)-methyl] mutilin tetrahydrochloride]",–,–,0.5,0.25
"CC1C(O)C(C)(CNCCCCCCNC(=N)N)CC(OC(=O)CSC2CCCNCC2)C2(C)C(C)CCC13CCC(=O)C32.Cl.Cl.Cl (stereo not drawn) [Example 131, 12-epi-12-desvinyl-14-O-[(Azepan-4-ylsulfanyl)-acetyl]-12-[(6-guanidino-hexylamino)-methyl] mutilin trihydrochloride]",0.125,0.06 µg/mL,–,–
"CC1C(O)C(C)(CNCCCCCCN)CC(OC(=O)CSc2cccc(CO)c2)C2(C)C(C)CCC13CCC(=O)C32.Cl.Cl (stereo not drawn) [Example 54, 12-epi-12-desvinyl-14-O-[(3-Hydroxymethyl-phenylsulfanyl)-acetyl]-12-[(6-amino-hexylamino)-methyl] mutilin dihydrochloride]",4,0.125 µg/mL,–,–

# — patent US9701628B2, “12-epi pleuromutilins” (NABRIVA THERAPEUTICS AG, priority 2014, dated 2017)
